From ChEMBL document CHEMBL1177708, “Design, synthesis, and biological evaluation of a novel class of gamma-secretase modulators with PPARgamma activity” (J Med Chem, 2010)
Active and inactive are the calls of the source. The rule behind the calls is not given here.

Columns and labels:
[1] = test system: CHO; experiment: Cytotoxicity against CHO cells at 60 uM after 24 hrs by Alamar blue assay; type: cell-based, Cricetulus griseus; details: chinese hamster
[2] = target: T1, Peroxisome proliferator-activated receptor gamma (Homo sapiens, UniProt P37231); experiment: Agonist activity at human PPARgamma-LBD expressed in COS7 cells co-transfected with Gal4 by luciferase based transactivation assay; type: functional, cell-based, COS-7
T1 sequence (P37231 whole entry): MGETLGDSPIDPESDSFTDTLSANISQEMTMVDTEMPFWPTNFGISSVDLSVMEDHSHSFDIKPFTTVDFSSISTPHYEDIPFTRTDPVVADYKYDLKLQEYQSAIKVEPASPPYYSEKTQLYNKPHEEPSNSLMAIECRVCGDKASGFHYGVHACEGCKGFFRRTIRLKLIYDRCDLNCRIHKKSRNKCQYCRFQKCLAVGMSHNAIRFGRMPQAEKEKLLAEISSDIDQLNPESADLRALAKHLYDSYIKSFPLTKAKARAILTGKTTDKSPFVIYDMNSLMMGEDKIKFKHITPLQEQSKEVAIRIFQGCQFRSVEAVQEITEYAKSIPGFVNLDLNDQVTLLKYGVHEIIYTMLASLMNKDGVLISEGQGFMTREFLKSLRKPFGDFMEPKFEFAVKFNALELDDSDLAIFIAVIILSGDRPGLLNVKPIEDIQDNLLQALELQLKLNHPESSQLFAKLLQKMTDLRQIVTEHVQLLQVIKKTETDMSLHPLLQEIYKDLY

[3] = target: T2, Prostaglandin G/H synthase 2 (Homo sapiens) (UniProt P35354); experiment: Inhibition of human recombinant COX2 assessed as residual activity at 10 uM after 5 mins
T2 sequence (whole entry): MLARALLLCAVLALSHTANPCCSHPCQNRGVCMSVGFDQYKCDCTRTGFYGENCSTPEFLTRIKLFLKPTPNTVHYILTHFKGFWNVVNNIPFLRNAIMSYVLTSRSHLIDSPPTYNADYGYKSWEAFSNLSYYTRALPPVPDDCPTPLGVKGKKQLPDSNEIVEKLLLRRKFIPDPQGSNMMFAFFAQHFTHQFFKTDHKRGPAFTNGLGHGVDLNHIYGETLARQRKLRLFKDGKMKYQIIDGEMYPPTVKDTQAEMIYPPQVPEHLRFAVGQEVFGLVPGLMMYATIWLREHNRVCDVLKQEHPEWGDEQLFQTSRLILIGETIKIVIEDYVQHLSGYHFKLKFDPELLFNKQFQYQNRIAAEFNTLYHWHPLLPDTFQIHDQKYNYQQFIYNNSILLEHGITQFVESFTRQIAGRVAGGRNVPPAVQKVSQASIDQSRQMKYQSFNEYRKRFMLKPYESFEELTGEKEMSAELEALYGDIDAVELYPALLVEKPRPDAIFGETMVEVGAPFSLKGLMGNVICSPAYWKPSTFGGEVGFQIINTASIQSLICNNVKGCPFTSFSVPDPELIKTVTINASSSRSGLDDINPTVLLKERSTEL

[4] = target: T3, Prostaglandin G/H synthase 1 (Ovis aries) (UniProt P05979); experiment: Inhibition of ovine COX1 assessed as residual activity at 10 uM after 5 mins
T3 sequence (whole entry): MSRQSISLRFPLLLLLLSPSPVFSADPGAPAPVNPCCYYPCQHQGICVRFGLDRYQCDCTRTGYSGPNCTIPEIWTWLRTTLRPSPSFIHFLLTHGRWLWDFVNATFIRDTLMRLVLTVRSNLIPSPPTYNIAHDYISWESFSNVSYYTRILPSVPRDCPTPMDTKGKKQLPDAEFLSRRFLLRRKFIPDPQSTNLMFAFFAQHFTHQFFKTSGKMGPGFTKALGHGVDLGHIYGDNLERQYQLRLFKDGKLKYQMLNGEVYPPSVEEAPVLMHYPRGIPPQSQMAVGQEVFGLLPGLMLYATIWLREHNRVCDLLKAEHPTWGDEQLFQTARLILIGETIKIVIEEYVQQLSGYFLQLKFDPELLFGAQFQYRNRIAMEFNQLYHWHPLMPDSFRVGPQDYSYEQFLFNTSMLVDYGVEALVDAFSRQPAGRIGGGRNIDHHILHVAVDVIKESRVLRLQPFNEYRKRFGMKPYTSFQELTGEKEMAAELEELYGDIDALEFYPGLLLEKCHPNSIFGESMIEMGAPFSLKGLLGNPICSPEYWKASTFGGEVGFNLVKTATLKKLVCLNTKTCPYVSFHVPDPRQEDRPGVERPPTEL

[5] = target: T4, Peroxisome proliferator-activated receptor delta (Homo sapiens) (UniProt Q03181); experiment: Agonist activity at human PPARdelta-LBD expressed in COS7 cells co-transfected with Gal4 at 10 uM by luciferase based transactivation assay; type: functional, cell-based; details: COS-7
T4 sequence (whole entry): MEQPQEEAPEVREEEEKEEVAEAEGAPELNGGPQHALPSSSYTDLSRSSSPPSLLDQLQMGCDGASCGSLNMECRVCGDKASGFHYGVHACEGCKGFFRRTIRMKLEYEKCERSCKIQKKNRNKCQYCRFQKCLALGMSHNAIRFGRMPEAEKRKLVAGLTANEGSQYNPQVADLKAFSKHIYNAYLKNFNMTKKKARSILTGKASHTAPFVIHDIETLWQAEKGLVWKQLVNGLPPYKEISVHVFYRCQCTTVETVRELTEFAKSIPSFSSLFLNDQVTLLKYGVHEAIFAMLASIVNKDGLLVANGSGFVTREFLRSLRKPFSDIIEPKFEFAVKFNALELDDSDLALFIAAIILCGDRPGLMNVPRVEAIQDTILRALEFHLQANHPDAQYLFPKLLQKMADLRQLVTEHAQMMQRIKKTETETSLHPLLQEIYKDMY

[6] = Modulation of gamma-secretase-mediated cleavage of human APP expressed in CHO cells with human presenilin-1 assessed as activation of amyloid beta38 production after 24 hrs by ELISA; type: cell-based
[7] = target: T5, Prostaglandin G/H synthase 1 (Ovis aries, UniProt P05979)
T5 sequence (P05979 whole entry): T3 sequence (whole entry)
Description: Inhibition of ovine COX1 after 5 mins

[8] = target: T6, Peroxisome proliferator-activated receptor gamma (Homo sapiens) (UniProt P37231); experiment: Agonist activity at human PPARgamma-LBD expressed in COS7 cells co-transfected with Gal4 by luciferase based transactivation assay relative to pioglitazone; type: functional, cell-based; details: COS-7
T6 sequence (whole entry): T1 sequence (P37231 whole entry)

[9] = cells; details: CHO, 24 h
Description: Modulation of gamma-secretase-mediated cleavage of human APP expressed in CHO cells with human presenilin-1 assessed as inhibition of amyloid beta42 production after 24 hrs by ELISA

[10] = target: T7, Peroxisome proliferator-activated receptor alpha (Homo sapiens) (UniProt Q07869); experiment: Agonist activity at human PPARalpha-LBD expressed in COS7 cells co-transfected with Gal4 at 10 uM by luciferase based transactivation assay; type: functional, cell-based; details: COS-7
T7 sequence (whole entry): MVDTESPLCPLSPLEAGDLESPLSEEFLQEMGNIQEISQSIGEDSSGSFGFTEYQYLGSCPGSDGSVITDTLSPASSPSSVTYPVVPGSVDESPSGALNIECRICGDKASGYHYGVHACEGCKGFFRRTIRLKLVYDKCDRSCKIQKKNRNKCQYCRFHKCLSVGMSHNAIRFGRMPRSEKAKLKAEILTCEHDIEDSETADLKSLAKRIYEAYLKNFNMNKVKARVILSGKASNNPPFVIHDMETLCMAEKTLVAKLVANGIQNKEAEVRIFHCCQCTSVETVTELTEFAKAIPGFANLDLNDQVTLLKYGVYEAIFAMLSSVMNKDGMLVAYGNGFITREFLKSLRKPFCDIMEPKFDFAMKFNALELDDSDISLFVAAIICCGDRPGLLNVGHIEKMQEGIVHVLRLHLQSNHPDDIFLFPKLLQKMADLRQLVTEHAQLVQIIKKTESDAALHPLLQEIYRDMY

[11] = test system: CHO; experiment: Modulation of gamma-secretase-mediated notch signaling expressed in CHO cells transfected with Gal4-DNA-binding/VP16 transactivation domain assessed as reduction of reporter activity at 5 to 40 uM after 24 hrs; type: cell-based

CCCCC(Sc1nc(OCCc2ccccc2)cc(OCCc2ccccc2)n1)C(=O)O (configuration not stated)
Activity [1]: Non-toxic
EC50 [2]: 8.3 µM
Activity [3]: 90.9%
Activity [4]: 64.2%
Activity [5]: inactive
EC50 [6]: 11.3 µM
IC50 [7]: 18.7 µM
Emax [8]: 61%
IC50 [9]: 22.8 µM
Activity [10]: inactive

CCCC[C@H](Sc1nc(OCCc2ccccc2)cc(OCCc2ccccc2)n1)C(=O)O
Activity [1]: Non-toxic
EC50 [2]: 10.4 µM
Activity [3]: 92.8%
Activity [4]: 83.5%
Activity [5]: inactive
EC50 [6]: 13.5 µM
Emax [8]: 62%
IC50 [9]: 32.6 µM
Activity [10]: inactive

CC(C(=O)O)c1ccc2c(c1)[nH]c1ccc(Cl)cc12 (configuration not stated) [CARPROFEN]
IC50 [7]: 13 µM
IC50 [9]: 305 µM

COc1ccc2c(c1)c(CC(=O)O)c(C)n2C(=O)c1ccc(Cl)cc1 [INDOMETHACIN]
IC50 [9]: 25 µM

CCCCCCC(Sc1nc(OCCc2ccccc2)cc(OCCc2ccccc2)n1)C(=O)O (configuration not stated)
Activity [1]: Non-toxic
EC50 [2]: 8.8 µM
Activity [3]: 63.8%
Activity [4]: 61.8%
Activity [5]: inactive
EC50 [6]: 24.2 µM
Emax [8]: 59%
IC50 [9]: 30.4 µM
Activity [10]: inactive

CCCCC(Sc1nc(OCCc2ccc(C)cc2)cc(OCCc2ccc(C)cc2)n1)C(=O)O (configuration not stated)
Activity [1]: Non-toxic
EC50 [2]: 7.5 µM
Activity [3]: 93.3%
Activity [4]: 57.2%
Activity [5]: inactive
EC50 [6]: 6.4 µM
Emax [8]: 63%
IC50 [9]: 13 µM
Activity [10]: inactive

CCCCC(Sc1nc(OCCC2CCCC2)cc(OCCC2CCCC2)n1)C(=O)O (configuration not stated)
Activity [1]: Non-toxic
Activity [3]: 84.7%
Activity [4]: 68.2%
Activity [5]: inactive
EC50 [6]: 9 µM
Emax [8]: 127%
IC50 [9]: 17.2 µM
Activity [10]: inactive

CSc1ccc(/C=C2/C(C)=C(CC(=O)O)c3cc(F)ccc32)cc1 [SULINDAC SULFIDE]
IC50 [7]: 0.05 µM
IC50 [9]: 34 µM

O=C(O)CSc1nc(OCCc2ccccc2)cc(OCCc2ccccc2)n1
Activity [1]: Non-toxic
EC50 [2]: 3.7 µM
Activity [3]: 91.7%
Activity [4]: 91.8%
Activity [5]: inactive
EC50 [6]: > 40 µM
Emax [8]: 111%
IC50 [9]: > 40 µM
Activity [10]: inactive

CCCCC(Sc1nc(OCCCCc2ccccc2)cc(OCCCCc2ccccc2)n1)C(=O)O (configuration not stated)
Activity [1]: Non-toxic
EC50 [2]: 10 µM
Activity [3]: 53.9%
Activity [4]: 78.8%
Activity [5]: inactive
EC50 [6]: 16.4 µM
Emax [8]: 55%
IC50 [9]: 22.9 µM
Activity [10]: inactive

CCCCC(Sc1nc(OCCc2ccc(C#N)cc2)cc(OCCc2ccc(C#N)cc2)n1)C(=O)O (configuration not stated)
Activity [1]: Non-toxic
EC50 [2]: 7 µM
Activity [3]: 82.6%
Activity [4]: 88.8%
Activity [5]: inactive
Emax [8]: 65%
IC50 [9]: > 40 µM
Activity [10]: inactive

CCCCC(Sc1nc(OCCCc2ccccc2)cc(OCCCc2ccccc2)n1)C(=O)O (configuration not stated)
Activity [1]: Non-toxic
EC50 [2]: 8.9 µM
Activity [3]: 51.9%
Activity [4]: 78.8%
Activity [5]: inactive
EC50 [6]: 16.4 µM
Emax [8]: 71%
IC50 [9]: 30.9 µM
Activity [10]: inactive

CCCCC(Sc1nc(OCCC2CC2)cc(OCCC2CC2)n1)C(=O)O (configuration not stated)
Activity [1]: Non-toxic
EC50 [2]: 4.3 µM
Activity [3]: 87.9%
Activity [4]: 97.7%
Activity [5]: inactive
EC50 [6]: 24 µM
Emax [8]: 79%
IC50 [9]: > 40 µM
Activity [10]: inactive

CCCCC(Sc1nc(OCCC2CCCCC2)cc(OCCC2CCCCC2)n1)C(=O)O (configuration not stated)
Activity [1]: Non-toxic
EC50 [2]: 6.6 µM
Activity [3]: 49.5%
Activity [11]: inactive
Activity [4]: 52.7%
Activity [5]: inactive
EC50 [6]: 4.6 µM
IC50 [7]: 13.4 µM
Emax [8]: 71%
IC50 [9]: 5.1 µM
Activity [10]: inactive

CCCCC(Sc1nc(OCCc2ccc(OC(F)(F)F)cc2)cc(OCCc2ccc(OC(F)(F)F)cc2)n1)C(=O)O (configuration not stated)
Activity [1]: Non-toxic
EC50 [2]: 10.3 µM
Activity [3]: 75.8%
Activity [4]: 73%
Activity [5]: inactive
EC50 [6]: 5.5 µM
Emax [8]: 115%
IC50 [9]: 8.6 µM
Activity [10]: inactive

CCC(Sc1nc(OCCc2ccccc2)cc(OCCc2ccccc2)n1)C(=O)O (configuration not stated)
Activity [1]: Non-toxic
EC50 [2]: 6.1 µM
Activity [3]: 56.9%
Activity [4]: 84.6%
Activity [5]: inactive
EC50 [6]: 31.1 µM
Emax [8]: 57%
IC50 [9]: 41.6 µM
Activity [10]: inactive

CCCCC(Sc1nc(OCCC(C)C)cc(OCCC(C)C)n1)C(=O)O (configuration not stated)
Activity [1]: Non-toxic
EC50 [2]: 11 µM
Activity [3]: 80.5%
Activity [4]: 72.4%
Activity [5]: inactive
EC50 [6]: 10.9 µM
Emax [8]: 69%
IC50 [9]: 28.2 µM
Activity [10]: inactive
